Ends that are not written are not given here.
Tests used:
[1] = system: BrdU-labelled cells in the MBH and dentate gyrus; assay: BrdU labelling survival assay with i.c.v. GnRH in old mice; format: in vivo; conditions: old C57BL/6 mice; GnRH 1 ng per day i.c.v.; 7 days of daily BrdU injections, thirty-day tracking; FIG. 6d, e
Method: (§1) Immunostaining, histology and western blot. Mice under anaesthesia were perfused with 4% paraformaldehyde, and brains were removed, post-fixed in 4% paraformaldehyde, and infiltrated in 20-30% sucrose. Brain sections were made at 10-μm thickness via a cryostat, blocked with serum, penetrated with Triton-X 100, treated overnight at 4° C. with primary antibody, followed by reaction with fluorescence-conjugated secondary antibody (Jackson), and imaged under a confocal microscope. For BrdU staining, sections were pre-treated with 1 M HCl for 30 min at 37° C., followed by 5-min treatment with 0.1 M sodium borate, pH 8.5. Primary antibodies included rabbit anti-Iba-1 (Wako), rabbit anti-GFAP (Millipore), mouse anti-TNF-α (Abcam), mouse anti-NeuN (Millipore), and goat anti-Cre antibody (Santa Cruz). For Nissl staining, freshly isolated mice brains were fixed in 4% paraformaldehyde in PBS for overnight at 4° C. The fixed whole brains were then subjected to cryosectioning coronally, and frozen sections were stained to detect Nissl body by using the NovaUltra Nissl stain kit (IHCWORLD) according to the manufacturer's instruction.
(§2) Serial brain sections across the MBH were made at 20 μm thickness, and every five sections were represented by one section with staining and cell counting. […]

[2] = system: neurogenesis in the MBH and dentate gyrus; assay: BrdU labelling neurogenesis assay with i.c.v. GnRH in old mice; format: in vivo; conditions: old C57BL/6 mice; GnRH 1 ng per day i.c.v. (third ventricle); single BrdU injection, 7 days; vs vehicle; FIG. 6a-c
Method: as §1, §2

[3] = system: aging physiology and histology; assay: Daily subcutaneous GnRH therapy: aging physiology and histology (muscle endurance, skeletal muscle fibers, dermal thickness); format: in vivo, C57BL/6 mice
Method: (§3) For animal GnRH therapy, mice were subcutaneously injected with GnRH (Sigma) at the dose of 2 ng per mouse on a daily basis for a period of 5-8 weeks. The Institutional Animal Care and Use Committee at the Albert Einstein College of Medicine approved all the procedures. Body weight and food intake were measured regularly using a laboratory scale. The grip test was performed to measure muscle endurance using the method as similarly described in the literature^36,37, using a homemade square grid with a small mesh size to allow mice to hang for longer time. In brief, a mouse was lifted by the tail and placed on a homemade square grid (1-cm mesh size). The grid was then inverted 30.5 cm over a soft pad, and the mouse was allowed to hang by paws for a maximum of 5 min. The time that the mouse was able to hang was recorded during a 5-min test period.
Tissue histology. Skeletal muscles (quadriceps) and dorsal skin were dissected from mice, fixed in 10% neutralized formalin at 4° C. overnight, and embedded into paraffin. Paraffin sections were prepared at 5-μm thickness and subjected to haematoxylin and eosin staining. Images were collected using an Axioskop II light microscope (Zeiss) and analyzed using Image J.

[4] = system: aging-related cognitive decline; assay: Daily subcutaneous GnRH therapy: cognition; format: in vivo, C57BL/6 mice; conditions: old MBH-ctrl and MBH-IKK-β mice; peripheral (s.c.) GnRH daily, 5 weeks; FIG. 6i
Method: as §3
Cognitive behavioral tests. […]
Hidden-platform training. […] Mice were expected to find the location of the invisible platform, and measured for latency to reach the platform, distance travelled to reach the platform, path efficiency, time spent in and distance travelled in each quadrant as well as total distance and mean swim speed.
Probe trial. […] Mice were measured for the amount of time spent in all quadrants, distance and number of times that mice crossed the location of the former platform, and total distance and mean swim speed. […]

gonadotropin-releasing hormone (QHWSYGLRPG; ends and bridges not checked; UniProt P01148 24-33, looked up) [GnRH, gonadotropin-releasing hormone (GnRH), obtained from Sigma]
survival of BrdU-labelled cells in MBH and dentate gyrus [1]: significantly survived | aging-diminished neurogenesis (BrdU-labelled cells in hypothalamus and hippocampus) [2]: substantially reversed | anti-aging phenotype ([3]; MBH-IκB-α mice treated with GnRH, data not shown): did not further enhance the anti-aging phenotype | pro-aging phenotype (muscle endurance, muscle fibers, dermal thickness) ([3]; old MBH-IKK-β mice, GnRH 2 ng per mouse s.c. daily, 5 weeks, FIG. 6f-h): abrogated the pro-aging phenotype | magnitude of aging histology (muscle endurance, muscle fibers, dermal thickness) ([3]; old MBH-ctrl mice, GnRH 2 ng per mouse s.c. daily, 5 weeks, FIG. 6f-h): reduced the magnitude of aging histology | aging-related cognitive decline [4]: amelioration of aging-related cognitive decline
